# Measured values: publication PMC6831561, “Pharmacological and Behavioral Effects of the Synthetic Cannabinoid AKB48 in Rats” (Frontiers in Neuroscience, 2019)
# What was measured:
# rats [1] = assay: Bar test (catalepsy); assay type: in vivo
# Protocol: In the bar test, the rat’s forelimbs were placed on a bar made of plastic (height 6 cm). The time spent on the bar was measured (immobility cut-off: 20 sec), and akinesia was calculated as the total time spent on the bar after three consecutive trials (total maximal time of catalepsy: 60 s; [De Luca et al., 2015]; [Canazza et al., 2016]). The bar test was performed at 0, 20, 40, 70, 140, and 195 min post-injection.
# rats [2] = assay: Startle and pre-pulse inhibition; assay type: in vivo
# Protocol: As previously reported ([Marti et al., 2019]), rats were tested for acoustic startle reactivity in startle chambers (Ugo Basile apparatus, Milan, Italy) consisting of a sound-attenuated, lighted, and ventilated enclosure holding a transparent non-restrictive Perspex® cage (modified version for rats 200 × 90 × 80 mm). A loudspeaker mounted laterally by the holder produced all acoustic stimuli. Peaks and amplitudes of the startle response were detected by a load cell. At the onset of the startling stimulus, 300 ms readings were recorded, and the wave amplitude evoked by the movement of the rat startle response was measured. Acoustic startle test sessions consisted of startle trials (pulse-alone) and pre-pulse trials (pre-pulse + pulse). The pulse-alone trial consisted of a 40 ms 120 dB pulse. Pre-pulse + pulse trial sequences consisted of a 20 ms acoustic pre-pulse, 80 ms delay, and then a 40 ms, 120 dB startle pulse (100 ms onset–onset). There was an average of 15 s (range = from 9 to 21 s) between the trials. Each startle session began with a 10 min acclimation period with a 65 dB broadband white noise that was present continuously throughout the session. The test session contained 40 trials composed by pulse-alone and pre-pulse + pulse trials (with three different pre-pulses of 68, 75, and 85 dB) presented in a pseudorandomized order. Rats were placed in the startle chambers 5 min after treatment with AKB48. The entire startle/PPI test lasted 20 min. The pre-pulse inhibition (PPI) was expressed as the percentage decrease in the amplitude of the startle reactivity caused by the presentation of the pre-pulse. AKB48 (0.1–3 mg/kg i.p.) was administered intraperitoneally, and startle/PPI responses were recorded 15 min (including the 10 min acclimation period) after drug injections.
# rats [3] = assay: Visual object response test; assay type: in vivo
# Excerpt: Visual response was verified by two behavioral tests that evaluated the ability of the rat to capture visual information even when stationary (the visual object response) or when moving (the visual placing response). The visual object response test was used to evaluate the ability of the rat to see an object approaching from the front or the side, inducing the animal to shift or turn its head or to retreat (modified from [Ossato et al., 2015]; [Marti et al., 2019]). For the frontal visual response, a white horizontal bar was moved frontally to the rat’s head; the maneuver was repeated three times. For the lateral visual response, a small dentist’s mirror was moved into the rat’s field of view in a horizontal arc until the stimulus was between the rat’s eyes. The procedure was conducted bilaterally and was repeated three times. The score assigned was a value of 1 if there was a reflection in the rat movement or 0 if not. The total value was calculated by adding the scores obtained in the frontal with that obtained in the lateral visual object response (overall score 9). Evaluation of the visual object response was measured at 0, 10, 30, 60, 120, and 180 min post-injection. The visual placing response test was performed using a tail suspension-modified apparatus able to bring the rat toward the floor at a constant speed of 10 cm/sec (modified from [Ossato et al., 2015]; [Marti et al., 2019]). The downward movement of the rat was videotaped. Frame-by-frame analysis allowed us to evaluate the beginning of the reaction of the rat while it was close to the floor. When the rat started the reaction, an electronic ruler evaluated the perpendicular distance in millimeters between the eyes of the rat to the floor. The naïve rats perceived the floor and prepared for contact at a distance of about 27 ± 4.5 mm. Evaluation of the visual placing response was measured at 0, 15, 35, 65, 125, and 190 min post-injection.
# extracellular DA levels = assay: In vivo brain microdialysis of DA (NAc shell, NAc core, mPFC); parameters: species or system rats
# Excerpt: Male Sprague-Dawley rats were anaesthetized with isoflurane gas, and maintained under anaesthesia using a breathing tube under a scavenging system while placed in a stereotaxic apparatus and implanted with vertical dialysis probes (1.5 or 3 mm dialyzing portion for NAc or mPFC, respectively) in the NAc shell (A + 2.2, L + 1.0 from bregma, V-7.8 from dura) or core (A + 1.4; L + 1.6 from bregma; V-7.6 from dura) or in the mPFC (A + 3.7, L + 0.8 from bregma, V-5.0 from dura), according to the rat brain atlas ([Paxinos and Watson, 1998]).
# On the day following surgery, probes were perfused with Ringer’s solution (147 mM NaCl, 4 mM KCl, 2.2 mM CaCl2) at a constant rate of 1 μL/min. Dialyzate samples (10 μL) were injected into an HPLC equipped with a reverse-phase column (C8 3.5 μm, Waters, United States) and a coulometric detector (ESA, Coulochem II) to quantify DA. The first electrode of the detector was set at + 130 mV (oxidation), and the second at −175 mV (reduction). The composition of the mobile phase was: 50 mM NaH2PO4, 0.1 mM Na2-EDTA, 0.5 mM n-octyl sodium sulfate, 15% (v/v) methanol, pH 5.5. The sensitivity of the assay for DA was 5 fmol/sample. At the end of the experiment, animals were sacrificed and their brains removed and stored in formalin (8%) for histological examination to verify the correct placement of the microdialysis probe.
# [4] = AKB48 0.1–3 mg/kg i.p., 15 min after treatment
compound,measurement,setting,value
"Cc1c(C(=O)NN2CCCCC2)nn(-c2ccc(Cl)cc2Cl)c1-c1ccc(I)cc1 [AM251, 1-(2,4-dichlorophenyl)-5-(4-iodophenyl)-4-methyl-N-(piperidin-1-yl)-1H-pyrazole-3-carboxamide, reference compound]","catalepsy, AM251 alone",rats [1]; AM251 1 mg/kg i.p. alone,did not induce catalepsy
same,"AKB48 effect on time spent on the bar, after AM251 pre-treatment",rats [1]; AM251 1 mg/kg i.p. before AKB48 3 mg/kg,prevented
same,"inhibitory effect of AKB48 on PPI at 68 dB, with AM251",rats [2]; AM251 1 mg/kg i.p. + AKB48,prevented
same,"inhibitory effect of AKB48 on PPI at 75 dB, with AM251",rats [2]; AM251 1 mg/kg i.p. + AKB48,prevented
same,"inhibitory effect of AKB48 on startle, with AM251",rats [2]; AM251 1 mg/kg i.p. + AKB48,prevented
same,"startle response, AM251 alone",rats [2]; AM251 1 mg/kg i.p. alone,did not modify
same,"visual object response, AM251 alone",rats [3]; AM251 1 mg/kg i.p. alone,did not alter
same,"inhibition of visual object response induced by AKB48, after AM251 pre-treatment",rats [3]; AM251 1 mg/kg i.p. before AKB48 3 mg/kg i.p.,prevented
"CCCCCn1nc(C(=O)NC23CC4CC(CC(C4)C2)C3)c2ccccc21 [AKB48, N-(1-adamantyl)-1-pentyl-1H-indazole-3-carboxamide]",DA levels in the NAc shell,extracellular DA levels; AKB48 0.25 mg/kg i.p.,increased
same,max increase of DA in the NAc shell,"extracellular DA levels; AKB48 0.25 mg/kg ip, at 20 and 40 min",about 40%
same,DA levels in the mPFC,extracellular DA levels; AKB48 0.125 and 0.25 mg/kg i.p.,No significant effects
same,DA levels in the NAc shell,extracellular DA levels; AKB48 lower or higher doses (0.125 and 0.5 mg/kg i.p.),ineffective
same,time spent on the bar,rats [1]; AKB48 0.1–3 mg/kg i.p.,slightly increased
same,PPI at 68 dB of pre-pulse intensity,rats [2]; [4],inhibited
same,PPI at 75 dB of pre-pulse intensity,rats [2]; [4],inhibited
same,inhibition at 3 mg/kg,"rats [2]; Rattus norvegicus, 0.25 h, AKB48 3 mg/kg, 15 min after administration, read-out: inhibition of startle amplitude",~50%
same,persistence of the reduction of visual object response,rats [3]; AKB48 0.3 mg/kg i.p.,transient
same,visual object response,"rats [3]; AKB48 0.1–3.0 mg/kg i.p., 180 min observation",dose-dependently reduced
same,persistence of the reduction of visual object response,rats [3]; AKB48 0.5 and 3.0 mg/kg i.p.,up to 180 min
